Experimental findings from US12371428B2 (Exelixis, Inc., priority 2019, dated 2025) are described below.

Structures are written as SMILES. Structures can show the parent of a compound that is named as a salt. Some results are limits rather than exact numbers.

Assay [1] addresses Human MET (residues 956-1390) (Homo sapiens (Human), UniProt P08581). The assay can be described thus: Human Met kinase assay, HTRF KinEase (Example D-2). It is filed as biochemical. The following applies: protocol of Example D-2 (other compounds); read-out: c-Met IC50. The gist of the method:
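IC50 values come from a 4-parameter logistic fit of the […] fluorescence ratio, set between DMSO (100%) and reference compound at 1 μM (0%). Reactions held MET 956-1390 at 0.1 ng/well, ATP at Km, biotinylated peptide, 5 mM MgCl2, 1 mM MnCl2, 1 mM DTT and 3% DMSO, and ran 40 min at room temperature before streptavidin-XL665/Eu-antibody detection.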

Assay [2] has as its target Met (phospho-Met, HGF-stimulated PC-3 prostate cancer cells) (Homo sapiens (Human), UniProt P08581). The assay can be described thus: Met autophosphorylation ELISA in PC-3 cells (Example F). Format: cell-based. The following applies: cellular activity; Met autophosphorylation ELISA in PC-3 cells; read-out: c-Met IC50. The gist of the method:
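IC50 values derive from a 4-parameter logistic fit of phospho-Met (panTyr) sandwich ELISA signals in PC-3 lysates, scaled between DMSO and reference-inhibitor wells. Cells, starved 3 h in serum-free medium, had 1 h compound exposure (8 doses, 0.3% DMSO) before 10 min stimulation with 100 ng/mL HGF.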

Met (phospho-Met, HGF-stimulated PC-3 prostate cancer cells), sequence (P08581 25-1390): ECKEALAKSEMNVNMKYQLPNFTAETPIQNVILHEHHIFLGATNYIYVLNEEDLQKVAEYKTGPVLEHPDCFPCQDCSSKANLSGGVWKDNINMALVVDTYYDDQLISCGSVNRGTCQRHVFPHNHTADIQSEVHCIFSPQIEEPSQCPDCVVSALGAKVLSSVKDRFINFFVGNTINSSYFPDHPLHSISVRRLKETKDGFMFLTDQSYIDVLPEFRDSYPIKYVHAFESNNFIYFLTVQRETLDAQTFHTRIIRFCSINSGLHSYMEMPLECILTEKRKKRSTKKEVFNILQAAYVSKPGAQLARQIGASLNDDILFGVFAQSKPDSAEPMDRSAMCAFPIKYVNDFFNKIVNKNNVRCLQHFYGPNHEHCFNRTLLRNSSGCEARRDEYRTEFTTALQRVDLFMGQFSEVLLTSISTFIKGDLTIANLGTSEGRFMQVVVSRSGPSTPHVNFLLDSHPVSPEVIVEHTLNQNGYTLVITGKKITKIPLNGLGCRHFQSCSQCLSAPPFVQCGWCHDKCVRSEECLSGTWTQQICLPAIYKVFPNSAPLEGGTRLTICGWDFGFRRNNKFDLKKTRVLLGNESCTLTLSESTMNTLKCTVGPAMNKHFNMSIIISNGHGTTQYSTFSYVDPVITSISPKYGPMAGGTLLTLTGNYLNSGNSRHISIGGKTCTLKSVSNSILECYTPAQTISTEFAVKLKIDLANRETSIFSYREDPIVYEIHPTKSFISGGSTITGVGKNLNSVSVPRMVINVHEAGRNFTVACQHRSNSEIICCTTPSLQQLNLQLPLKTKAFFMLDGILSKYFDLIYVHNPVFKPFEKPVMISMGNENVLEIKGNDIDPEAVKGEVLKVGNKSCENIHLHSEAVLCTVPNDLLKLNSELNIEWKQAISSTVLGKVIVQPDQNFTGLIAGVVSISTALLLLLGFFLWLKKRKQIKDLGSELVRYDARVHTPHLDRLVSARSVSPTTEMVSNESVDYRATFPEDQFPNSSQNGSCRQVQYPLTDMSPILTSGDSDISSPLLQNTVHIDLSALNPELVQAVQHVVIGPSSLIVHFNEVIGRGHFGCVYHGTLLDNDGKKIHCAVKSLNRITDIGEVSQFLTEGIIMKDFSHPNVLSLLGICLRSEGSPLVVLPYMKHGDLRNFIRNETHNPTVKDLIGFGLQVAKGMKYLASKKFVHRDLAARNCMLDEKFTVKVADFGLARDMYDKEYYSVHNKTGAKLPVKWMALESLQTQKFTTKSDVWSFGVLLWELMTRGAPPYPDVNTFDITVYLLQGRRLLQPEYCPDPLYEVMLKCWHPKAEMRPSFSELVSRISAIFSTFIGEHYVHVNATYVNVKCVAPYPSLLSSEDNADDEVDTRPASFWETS
Human MET (residues 956-1390), sequence (P08581 956-1390): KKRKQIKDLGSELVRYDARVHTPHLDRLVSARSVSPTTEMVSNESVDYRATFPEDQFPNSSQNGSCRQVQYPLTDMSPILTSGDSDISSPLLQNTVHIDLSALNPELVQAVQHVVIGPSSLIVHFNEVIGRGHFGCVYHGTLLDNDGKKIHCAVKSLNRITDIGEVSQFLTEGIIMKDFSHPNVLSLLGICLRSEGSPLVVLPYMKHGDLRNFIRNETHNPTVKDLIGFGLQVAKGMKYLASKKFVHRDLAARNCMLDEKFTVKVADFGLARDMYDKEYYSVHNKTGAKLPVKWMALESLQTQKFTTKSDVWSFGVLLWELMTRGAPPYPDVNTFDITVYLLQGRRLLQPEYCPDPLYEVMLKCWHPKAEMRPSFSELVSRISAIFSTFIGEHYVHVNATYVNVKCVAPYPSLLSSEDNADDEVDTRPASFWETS

With `COc1cc2nccc(Oc3ccc(NC(=O)C4=C5CCCN5CC(c5ccc(F)cc5)C4=O)cc3F)c2nc1OC` (racemic) [Compound 373, N-[4-[(6,7-dimethoxy-1,5-naphthyridin-4-yl)oxy]-3-fluorophenyl]-6-(4-fluorophenyl)-7-oxo-2,3,5,6-tetrahydro-1H-indolizine-8-carboxamide], the IC50 in assay [1] and in assay [2] was less than 100 nM throughout.

Take `COc1cc2nccc(Oc3ccc(NC(=O)C4=C5CCCN5CC(c5ccc(F)cc5)C4=O)cc3F)c2nc1OC` (single isomer, unassigned; enantiomer 1) [Compound 374, N-[4-[(6,7-dimethoxy-1,5-naphthyridin-4-yl)oxy]-3-fluorophenyl]-6-(4-fluorophenyl)-7-oxo-2,3,5,6-tetrahydro-1H-indolizine-8-carboxamide, enantiomer 1]: the IC50 in assay [1] and in assay [2] was less than 100 nM throughout.

Regarding `COc1cc2nccc(Oc3ccc(NC(=O)c4cn(C)cc(-c5ccc(Cl)cc5)c4=O)cc3F)c2nc1OC` [Compound 38, 5-(4-Chlorophenyl)-N-[4-[(6,7-dimethoxy-1,5-naphthyridin-4-yl)oxy]-3-fluorophenyl]-1-methyl-4-oxopyridine-3-carboxamide hydrochloride], the IC50 in assay [1] was less than 100 nM; in assay [2], 100 to 300 nM.

Take `COc1cc2nccc(Oc3ccc(NC(=O)c4cn(C)cc(-c5ccccc5)c4=O)cc3)c2nc1OC` [Compound 39, N-[4-[(6,7-Dimethoxy-1,5-naphthyridin-4-yl)oxy]phenyl]-1-methyl-4-oxo-5-phenylpyridine-3-carboxamide hydrochloride]: the IC50 in assay [1] and in assay [2] was less than 100 nM each time.

With `COc1cnc2c(Oc3ccc(NC(=O)c4cn(C)cc(-c5ccccc5)c4=O)cc3F)ccnc2c1` [Compound 40, N-[3-Fluoro-4-[(7-methoxy-1,5-naphthyridin-4-yl)oxy]phenyl]-1-methyl-4-oxo-5-phenylpyridine-3-carboxamide hydrochloride], the IC50 in assay [1] and in assay [2] was less than 100 nM throughout.

As for `COc1cnc2c(Oc3ccc(NC(=O)c4ncc(C)n(-c5ccc(F)cc5)c4=O)cc3)ccnc2c1` [Compound 263, 4-(4-Fluorophenyl)-N-[4-[(7-methoxy-1,5-naphthyridin-4-yl)oxy]phenyl]-5-methyl-3-oxopyrazine-2-carboxamide], the IC50 in assay [1] and in assay [2] was less than 100 nM in each case.

Consider `COc1ccc2nccc(Oc3ccc(NC(=O)c4ncc(C)n(-c5ccc(F)cc5)c4=O)cc3F)c2n1` [Compound 264, N-[3-Fluoro-4-[(6-methoxy-1,5-naphthyridin-4-yl)oxy]phenyl]-4-(4-fluorophenyl)-5-methyl-3-oxopyrazine-2-carboxamide], for which the IC50 in assay [1] and in assay [2] was less than 100 nM each time.

`COc1cnc2c(Oc3ccc(NC(=O)c4cnc(C)n(-c5ccc(F)cc5)c4=O)cc3F)ccnc2c1` [Compound 265, N-[3-Fluoro-4-[(7-methoxy-1,5-naphthyridin-4-yl)oxy]phenyl]-1-(4-fluorophenyl)-2-methyl-6-oxopyrimidine-5-carboxamide]: the IC50 in assay [1] and in assay [2] was less than 100 nM throughout.

Consider `COc1cnc2c(Oc3ccc(NC(=O)c4cnc(C)n(-c5ccc(F)cc5)c4=O)cc3)ccnc2c1` [Compound 266, 1-(4-Fluorophenyl)-N-[4-[(7-methoxy-1,5-naphthyridin-4-yl)oxy]phenyl]-2-methyl-6-oxopyrimidine-5-carboxamide], for which the 50% inhibitory concentration (IC50) in assay [1] and in assay [2] was less than 100 nM in each case.

For the compound `COc1cc2nccc(Oc3ccc(NC(=O)c4cn(C)cc(-c5c(C)cc(F)cc5C)c4=O)cc3F)c2nc1OC` [Compound 268, N-[4-[(6,7-Dimethoxy-1,5-naphthyridin-4-yl)oxy]-3-fluorophenyl]-5-(4-fluoro-2,6-dimethylphenyl)-1-methyl-4-oxopyridine-3-carboxamide], the IC50 in assay [1] and in assay [2] was less than 100 nM each time.

Consider `COCc1c(-c2ccc(F)cc2)c(=O)c(C(=O)Nc2ccc(Oc3ccnc4cc(OC)c(OC)nc34)c(F)c2)cn1C` [Compound 269, N-[4-[(6,7-Dimethoxy-1,5-naphthyridin-4-yl)oxy]-3-fluorophenyl]-5-(4-fluorophenyl)-6-(methoxymethyl)-1-methyl-4-oxopyridine-3-carboxamide], for which the IC50 in assay [1] and in assay [2] was less than 100 nM throughout.

Turning to `COCc1c(-c2ccc(F)cc2)c(=O)c(C(=O)Nc2ccc(Oc3ccnc4cc(OC)cnc34)c(F)c2)cn1C` [Compound 270, N-[3-Fluoro-4-[(7-methoxy-1,5-naphthyridin-4-yl)oxy]phenyl]-5-(4-fluorophenyl)-6-(methoxymethyl)-1-methyl-4-oxopyridine-3-carboxamide], the IC50 in assay [1] is less than 100 nM; in assay [2] it was 100 to 300 nM.

As for `CCn1cc(C(=O)Nc2ccc(Oc3ccnc4cc(OC)c(OC)nc34)c(F)c2)c(=O)c(-c2ccc(F)cc2)c1CO` [Compound 271, N-[4-[(6,7-Dimethoxy-1,5-naphthyridin-4-yl)oxy]-3-fluorophenyl]-1-ethyl-5-(4-fluorophenyl)-6-(hydroxymethyl)-4-oxopyridine-3-carboxamide], the IC50 in assay [1] and in assay [2] was less than 100 nM each time.

On to `CCn1cc(C(=O)Nc2ccc(Oc3ccnc4cc(OC)c(OC)nc34)cc2)c(=O)c(-c2ccc(F)cc2)c1CO` [Compound 272, N-[4-[(6,7-Dimethoxy-1,5-naphthyridin-4-yl)oxy]phenyl]-1-ethyl-5-(4-fluorophenyl)-6-(hydroxymethyl)-4-oxopyridine-3-carboxamide], for which the IC50 in assay [1] and in assay [2] was less than 100 nM each time.

Regarding `CCn1cc(C(=O)Nc2ccc(Oc3ccnc4cc(OC)cnc34)c(F)c2)c(=O)c(-c2ccc(F)cc2)c1CO` [Compound 273, 1-Ethyl-N-[3-fluoro-4-[(7-methoxy-1,5-naphthyridin-4-yl)oxy]phenyl]-5-(4-fluorophenyl)-6-(hydroxymethyl)-4-oxopyridine-3-carboxamide], the IC50 in assay [1] and in assay [2] was less than 100 nM in each case.

On to `CCn1cc(C(=O)Nc2ccc(Oc3ccnc4cc(OC)cnc34)cc2)c(=O)c(-c2ccc(F)cc2)c1CO` [Compound 274, 1-Ethyl-5-(4-fluorophenyl)-6-(hydroxymethyl)-N-[4-[(7-methoxy-1,5-naphthyridin-4-yl)oxy]phenyl]-4-oxopyridine-3-carboxamide], for which the IC50 in assay [1] and in assay [2] was less than 100 nM in each case.

With `Cc1ccc(C(=O)Nc2ccc(Oc3ccnc4cc(OCc5ccccc5)cnc34)c(F)c2)c(=O)n1-c1ccc(F)cc1` [Compound 275, 1-(4-Fluorophenyl)-N-[3-fluoro-4-[(7-phenylmethoxy-1,5-naphthyridin-4-yl)oxy]phenyl]-6-methyl-2-oxopyridine-3-carboxamide], the half-inhibitory concentration (IC50) is 100 to 300 nM in assay [1] and less than 100 nM in assay [2].

Regarding `COc1ccc2nccc(Oc3ccc(NC(=O)c4ccc(C)n(-c5ccc(F)cc5C)c4=O)cc3)c2n1` [Compound 276, 1-(4-Fluoro-2-methylphenyl)-N-[4-[(6-methoxy-1,5-naphthyridin-4-yl)oxy]phenyl]-6-methyl-2-oxopyridine-3-carboxamide], the IC50 in assay [1] and in assay [2] was 100 to 300 nM each time.

Consider `Cc1nc(C)c(-c2ccc(F)cc2)c(O)c1C(=O)Nc1ccc(Oc2ccnc3cc(OCc4ccccc4)cnc23)c(F)c1` [Compound 277, 5-(4-Fluorophenyl)-N-[3-fluoro-4-[(7-phenylmethoxy-1,5-naphthyridin-4-yl)oxy]phenyl]-4-hydroxy-2,6-dimethylpyridine-3-carboxamide], for which the IC50 in assay [1] and in assay [2] was less than 100 nM in each case.

With `Cc1nc(C)n(-c2ccc(F)cc2)c(=O)c1C(=O)Nc1ccc(Oc2ccnc3cc(OCc4ccccc4)cnc23)c(F)c1` [Compound 278, 1-(4-Fluorophenyl)-N-[3-fluoro-4-[(7-phenylmethoxy-1,5-naphthyridin-4-yl)oxy]phenyl]-2,4-dimethyl-6-oxopyrimidine-5-carboxamide], the IC50 in assay [1] and in assay [2] was less than 100 nM in each case.

`COc1cc2nccc(Oc3ccc(NC(=O)c4c(C)cc(C)n(-c5ccc(F)cc5)c4=O)cc3F)c2nc1OC` [Compound 279, N-[4-[(6,7-Dimethoxy-1,5-naphthyridin-4-yl)oxy]-3-fluorophenyl]-1-(4-fluorophenyl)-4,6-dimethyl-2-oxopyridine-3-carboxamide]: the IC50 in assay [1] and in assay [2] was less than 100 nM in each case.

As to `COc1cnc2c(Oc3ccc(NC(=O)c4c(C)cc(C)n(-c5ccc(F)cc5)c4=O)cc3F)ccnc2c1` [Compound 280, N-[3-Fluoro-4-[(7-methoxy-1,5-naphthyridin-4-yl)oxy]phenyl]-1-(4-fluorophenyl)-4,6-dimethyl-2-oxopyridine-3-carboxamide], the IC50 in assay [1] and in assay [2] was less than 100 nM each time.

Turning to `COc1ccc2nccc(Oc3ccc(NC(=O)c4c(C)cc(C)n(-c5ccc(F)cc5)c4=O)cc3F)c2n1` [Compound 281, N-[3-Fluoro-4-[(6-methoxy-1,5-naphthyridin-4-yl)oxy]phenyl]-1-(4-fluorophenyl)-4,6-dimethyl-2-oxopyridine-3-carboxamide], the IC50 in assay [1] and in assay [2] was less than 100 nM throughout.

Regarding `COc1cc2nccc(Oc3ccc(NC(=O)c4cn(C)c(CO)c(-c5ccc(F)cc5C)c4=O)cc3F)c2nc1OC` [Compound 282, N-[4-[(6,7-Dimethoxy-1,5-naphthyridin-4-yl)oxy]-3-fluorophenyl]-5-(4-fluoro-2-methylphenyl)-6-(hydroxymethyl)-1-methyl-4-oxopyridine-3-carboxamide], the IC50 in assay [1] and in assay [2] was less than 100 nM throughout.
